Measured values taken from patent US20160115200A1, “New Use for JNK Inhibitor Molecules for Treatment of Various Diseases” (XIGEN INFLAMMATION LTD., priority 2013, published 2016).
Square brackets hold non-standard residues; d marks the D form. Peptide text beside a SMILES is read from it.

Tested on: human whole blood
Assay: Cytokine release in human whole blood stimulated 3 days with PHA-L or CD3/CD28 antibodies
Assay type: cell-based
Conditions: human whole blood, 1, 3, 10 μM
Experimental: Whole blood from human healthy volunteers was collected using a venipuncture connected to a pre-labeled vacuum tube containing sodium citrate. Tubes are gently mixed by inversion 7-8 times; and are then kept at RT until stimulation. 350 μl of RPMI+P/S were added into 1.2 ml-96-well plate. 10 times concentrated of SEQ ID NO: 172 was prepared in RPMI+P/S (50 μl per well). 50 μl was added into 1.2 ml-96 well plates. 50 μl of whole blood was then added in each well where either medium alone or JNK inhibitor has been previously added. Whole blood was incubated at 37° C., 5% CO2 for 60 min. 50 μl/well of ligands diluted in RPMI+P/S was prepared, corresponding to the final dilution 10 times concentrated. After 60 min of incubation, ligand was added; wells were then mixed by pipetting up and down the blood. Whole blood was incubated for 3 days at 37° C. (wells were mixed by pipetting each well up and down once per day). At the end of incubation, plates were mixed and then centrifuged at 2500 rpm, 4° C. for 15 min in a pre-cooled centrifuge. Cytokine were then measured using standard Elisa kits. Results are expressed as pg/ml of supernatant of the measured cytokine.
A similar experiment was carried out with slight modifications. In the case of […] stimulation, CD3 antibody was coated at 2 μg/mL in PBS overnight at 4° C. The day of experiment, wells were washed three times with PBS and left in PBS until use at 37° C. CD28 antibody was added 1 h after SEQ ID NO: 172 at final concentration of 2 μg/mL; supernatants were collected after 3 days of stimulation.

With `CC(C)C[C@H](NC(=O)[C@H](CC(N)=O)NC(=O)[C@H](CC(C)C)NC(=O)[C@@H](NC(=O)[C@@H](C)NC(=O)[C@@H]1CCCN1C(=O)[C@H](CCCNC(=N)N)NC(=O)[C@@H](CCCCN)NC(=O)[C@@H]1CCCN1C(=O)[C@H](CCCNC(=N)N)NC(=O)[C@@H](CCCNC(=N)N)NC(=O)[C@H](CCCNC(=N)N)NC(=O)[C@H](CCCNC(=N)N)NC(=O)[C@H](CCC(N)=O)NC(=O)[C@@H](CCCNC(=N)N)NC(=O)[C@H](CCCNC(=N)N)NC(=O)[C@H](CCCCN)NC(=O)[C@H](CCCCN)NC(=O)[C@H](N)CCCNC(=N)N)[C@@H](C)O)C(=O)N[C@H](Cc1ccccc1)C(N)=O` [SEQ ID NO: 172, rKKRrQRRrRPkRPaTLNLf] (H-[dR]KKR[dR]QRR[dR]RP[dK]RP[dA]TLNL[dF]-NH2) the “CD3/CD28-induced TNF-α release” value (CD3+/-CD28 antibodies 2 μg/mL) was “reduce the CD3/CD28-induced TNF-α release in a dose-dependent manner”, the “PHA-L-induced IL-2 release” value (PHA-L 5 μg/mL) was “reduce the PHA-L-induced IL-2 release in a dose-dependent manner” and the “PHA-L-induced TNF-α release” value (PHA-L 5 μg/mL) was “reduce the PHA-L-induced TNF-α release in a dose-dependent manner”.
